Results on 25 compounds are retold here after PubChem BioAssay (NCI).

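Cultured in 96-well plates, cells were exposed to test compound for 48 hours across five concentrations. GI50 = concentration required for 50% inhibition of growth. TGI: concentration producing complete growth inhibition.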

Common to all, as to test: growth of human tumour cells (NCI), 48 h
Experiment [1] has as its system IGROV1 ovarian.
Experiment [2] relates to SK-MEL-5 melanoma.
Experiment [3] concerns HCC-2998 colon.
Experiment [4] concerns LOX IMVI melanoma.
The test system of experiment [5] is UACC-62 melanoma.
Experiment [6] deals with NCI-H460 lung.
The test system of experiment [7] is K-562 leukemia.
Experiment [8] has as its system 786-0 renal.
Experiment [9] relates to TK-10 renal.
Experiment [10] relates to A498 renal.

As for `CC(=O)Oc1cc2c(cc1OC(C)=O)C1(C)CCC2(C)c2cc(OC(C)=O)c(OC(C)=O)cc21`, the TGI in [1] is 72.3 µM; in experiment [2], 54.7 µM; in experiment [3], 71.9 µM; in experiment [4] it was over 100 µM; in experiment [5], 29.5 µM; in experiment [6] it was 50 µM. Besides, the TGI in experiment [7] was 81.8 µM; in experiment [8], over 100 µM; in experiment [9], 76.6 µM.

As for `Cc1cn(C2CC(OC(=O)c3ccc(Cl)cc3)C(COC(=O)c3ccc(Cl)cc3)O2)c(=O)[nH]c1=O` (stereo unspecified), the TGI in experiment [1], in experiment [2], in experiment [4], in experiment [5], in [6] and in experiment [7] was over 100 µM each time. Besides, the TGI in experiment [8] and in experiment [9] was over 100 µM each time.

Consider `O=C1C(=O)c2ccccc2C(O)=C1C(C1=C(O)c2ccccc2C(=O)C1=O)c1ccc(Cl)cc1`, for which the TGI worked out at 27.2 µM in experiment [1]; 19.9 µM in [2]; 7.78 µM in experiment [4]; 23.5 µM in experiment [5]; 28.9 µM in experiment [6]; 34 µM in experiment [10]. Also, the TGI in experiment [7] was 39.2 µM; in experiment [8], 11.2 µM; in [9], 28.2 µM.

With `CC(=O)c1ccc(NC(=O)/C(CC(=O)c2sc(-c3cccnc3)nc2C)=N/NC(N)=O)cc1`, the TGI in [1], in experiment [2], in experiment [4], in experiment [5], in [6] and in experiment [10] was over 100 µM in each case. The TGI in experiment [7] is over 100 µM; in experiment [8], 83.8 µM.

For the compound `O=C(Nc1ccc(Cl)cc1)C1C(=O)C(=O)N(c2ccc(Cl)cc2)C1=O` (stereo unspecified), the TGI in experiment [1], in experiment [2], in experiment [4], in experiment [5], in experiment [6] and in experiment [10] was over 100 µM in each case. Also, the TGI in experiment [7], in experiment [8] and in [9] was over 100 µM in each case.

Take `Cc1ccc(S(=O)(=O)N/N=C2\CCCCC23CCC(=O)NC3)cc1` (stereo unspecified): the TGI in [1], in [2], in experiment [3], in [5], in [6] and in experiment [10] was over 100 µM throughout. The TGI in experiment [7], in [8] and in experiment [9] was over 100 µM in each case.

On to `N/N=C\c1c2ccccc2c(=O)n2c1oc1ccccc12`, for which the GI50 was 2.8 µM in [2]; 16.5 µM in experiment [3]; 16.4 µM in [4]; 6.82 µM in [5]; 5.47 µM in [6]; 20.8 µM in experiment [7]. The GI50 in experiment [8] is 26.7 µM; in [9], 18.7 µM. Further, the TGI in [2] came out at 8.34 µM; in [3], 30.5 µM; in experiment [4] it was 29.9 µM; in experiment [5], 19.7 µM; in [6] it was 18.4 µM; in experiment [7] it was 67.6 µM. For the same compound, the TGI in experiment [8] was found to be 61.7 µM; in experiment [9], 34.3 µM.

`COc1ccc([C@@]2(O)c3c(ccc(O)c3OC)[C@H]2OC)c(OC)c1`: the TGI in experiment [1], in [2], in [3], in experiment [6], in experiment [10] and in experiment [7] was over 100 µM in each case. In addition, the TGI in experiment [8] and in experiment [9] was over 100 µM throughout.

Take `COc1ccc2c(c1)C(=O)CCc1cc(OC)c(OC)c(OC)c1-2`: the GI50 in [3], in experiment [4], in experiment [5], in [6], in experiment [7] and in experiment [8] was under 0.01 µM throughout. Further, the TGI in [4], in experiment [5], in experiment [6], in experiment [7], in experiment [8] and in [9] was over 100 µM in each case.

As to `CN(C)CCOc1ccc([N+](=O)[O-])c2cccnc12`, the TGI in experiment [1], in [2], in [3], in experiment [5], in experiment [6] and in experiment [10] was over 100 µM each time. The TGI in experiment [7], in [8] and in experiment [9] was over 100 µM throughout.

`O=NNc1ccc2ccccc2n1`: the TGI in [1], in experiment [2], in [4], in experiment [5], in [6] and in experiment [10] was over 100 µM in each case. In addition, the TGI in experiment [7], in experiment [8] and in experiment [9] was over 100 µM each time.

As for `Cc1ccc(S(=O)(=O)OC2CC=CC2)cc1`, the TGI in experiment [1], in experiment [2], in [3], in experiment [4], in experiment [5] and in experiment [6] was over 100 µM each time. Further, the TGI in experiment [7], in experiment [8] and in [9] was over 100 µM each time.

Turning to `COc1cc(Nc2ncccc2C(=O)Nc2nc3ccc(F)cc3s2)cc(OC)c1OC`, the GI50 is 1.77 µM in experiment [1]; 1.63 µM in experiment [2]; 2.93 µM in experiment [3]; 3.87 µM in experiment [4]; 3.3 µM in experiment [6]; 3.45 µM in [10]. The GI50 in experiment [8] is 5.51 µM. Further, the TGI in experiment [1] is 6.89 µM; in [2], 5.14 µM; in experiment [3], 6.96 µM; in experiment [4], over 100 µM; in experiment [6], over 100 µM; in experiment [10] it was over 100 µM. Also, the TGI in experiment [8] is over 100 µM.

Take `CN(C)Cc1cc(C(F)(F)F)ccc1C(O)(c1ccccc1)c1ccccc1`: the TGI in experiment [1] was 30.9 µM; in [2], 27.3 µM; in [4], 31.8 µM; in experiment [5], 26 µM; in experiment [6] it was 28.1 µM; in experiment [10] it was 24.7 µM. Besides, the TGI came out at 24.4 µM in experiment [7], 27.7 µM in experiment [8] and 31 µM in [9].

As to `C[C@]12CC=CC(=O)[C@@]1(C)CCC(=O)C2`, the TGI in experiment [1], in [2], in experiment [3], in experiment [5], in experiment [6] and in experiment [10] was over 100 µM each time. Moreover, the TGI in experiment [7], in experiment [8] and in [9] was over 100 µM each time.

`[N-]=[N+]=NCCCn1c2c(c3ccc([N+](=O)[O-])cc3c1=O)C(=O)c1ccccc1-2`: the GI50 in experiment [1] is over 100 µM; in [2], 2.39 µM; in experiment [4], 8.66 µM; in experiment [5], 29.6 µM; in [6], 8.65 µM; in [7], 1.05 µM. Also, the GI50 in experiment [8] was over 100 µM; in experiment [9], 99.2 µM. In addition, the TGI was over 100 µM in experiment [1]; 9.31 µM in experiment [2]; over 100 µM in experiment [4]; over 100 µM in [5]; over 100 µM in experiment [6]; over 100 µM in [7]. The TGI in experiment [8] and in [9] was over 100 µM each time.

On to `CC1(O)C(C)(O)C2(C)O[Te]3(OC12C)OC1(C)C(C)(O)C(C)(O)C1(C)O3` (stereo unspecified), for which the TGI in experiment [1] is 35.7 µM; in [2], 32.7 µM; in [3], over 100 µM; in [4] it was 18.9 µM; in experiment [5], over 100 µM; in [6], 47.9 µM. Moreover, the results for the TGI in [7], in [8] and in [9] were 39 µM, over 100 µM and over 100 µM, respectively.

`C=C(C)[C@@H]1CC[C@]2(COCCCN)CC[C@]3(C)[C@H](CC[C@@H]4[C@@](C)(CCCNCCCN)[C@H](C(=C)C)CC[C@]43C)[C@@H]12`: the GI50 in experiment [1] is 1.49 µM; in [2], 1.81 µM; in [5] it was 1.71 µM; in experiment [6], 1.8 µM; in experiment [10] it was 14.5 µM; in experiment [7] it was 1.67 µM. Moreover, the results for the GI50 in experiment [8] and in [9] were 1.56 µM and 1.68 µM, respectively. Also, the TGI was found to be 2.9 µM in [1]; 3.27 µM in [2]; 3.22 µM in experiment [5]; 3.44 µM in experiment [6]; 37.1 µM in experiment [10]; 3.57 µM in [7]. Also, the TGI is 2.96 µM in [8] and 3.15 µM in experiment [9].

Consider `CC(C)(C)c1cc([N+](=O)[O-])cc([N+](=O)[O-])c1O`, for which the TGI in experiment [1], in [2], in experiment [3], in experiment [4], in experiment [5] and in experiment [6] was over 10 µM each time. The TGI in experiment [7], in experiment [8] and in experiment [9] was over 10 µM each time.

For `CC(=O)C1C(c2ccccc2)C2(C)OC(=O)C(C#N)C12C` (stereo unspecified), the TGI in experiment [1], in experiment [2], in [4], in experiment [5], in experiment [6] and in [7] was over 100 µM throughout. Further, the TGI in experiment [8] and in [9] was over 100 µM each time.

Take `COc1ccc(C(C#N)NC23CC4CC(CC(C4)C2)C3)cc1` (stereo unspecified): the TGI in experiment [1], in experiment [2], in [3], in experiment [4], in experiment [5] and in experiment [6] was over 100 µM each time. Besides, the TGI in experiment [7], in experiment [8] and in [9] was over 100 µM in each case.

Regarding `O=C(O)CCCc1ccc2ccc3ccccc3c2c1`, the TGI in [1], in experiment [2], in experiment [4], in experiment [5], in experiment [6] and in experiment [10] was over 100 µM throughout. Moreover, the TGI in experiment [7], in experiment [8] and in experiment [9] was over 100 µM each time.

With `CN(C)C/C=C/C(=O)Nc1ccc(C(=O)N[C@@]2(C)CCC[C@@H](Nc3ncc(Cl)c(-c4c[nH]c5ccccc45)n3)C2)nc1`, the GI50 in [2] was 0.0221 µM; in experiment [3], under 0.01 µM; in [5], under 0.01 µM; in experiment [6], under 0.01 µM; in experiment [10], 0.0189 µM; in experiment [7], under 0.01 µM. Besides, the results for the GI50 in experiment [8] and in experiment [9] were under 0.0146 µM and 0.0153 µM, respectively. In addition, the TGI in experiment [2] is 0.779 µM; in experiment [3], 0.164 µM; in experiment [5], 0.0728 µM; in [6], 0.386 µM; in experiment [10], 0.0621 µM; in [7], 5.32 µM. In addition, the figures for the TGI in experiment [8] and in experiment [9] were 0.236 µM and 1.11 µM, respectively.

As for `CC(C)C(O)(C(C)C)C(C)C`, the TGI in experiment [1], in [2], in experiment [4], in [5], in experiment [6] and in experiment [10] was over 100 µM throughout. Moreover, the TGI in experiment [7], in [8] and in experiment [9] was over 100 µM throughout.

With `CCOC(=O)[CH-]C(=O)C12CC3CC(CC(C3)C1)C2.CCOC(=O)[CH-]C(=O)C12CC3CC(CC(C3)C1)C2.CC[O-].CC[O-].[Ti+4]`, the GI50 in [1], in experiment [2], in experiment [4], in experiment [5], in [6] and in experiment [10] was over 100 µM each time. In addition, the GI50 in experiment [7], in experiment [8] and in [9] was over 100 µM throughout. Also, the TGI in experiment [1], in experiment [2], in [4], in experiment [5], in experiment [6] and in experiment [10] was over 100 µM throughout. For the same compound, the TGI in experiment [7], in [8] and in [9] was over 100 µM in each case.
